The text below walks through data of patent publication EP4650353A1 (Shanghai Institute of Materia Medica, Chinese Academy of …, priority 2023, dated 2024).

T1 sequence (P43220 24-463): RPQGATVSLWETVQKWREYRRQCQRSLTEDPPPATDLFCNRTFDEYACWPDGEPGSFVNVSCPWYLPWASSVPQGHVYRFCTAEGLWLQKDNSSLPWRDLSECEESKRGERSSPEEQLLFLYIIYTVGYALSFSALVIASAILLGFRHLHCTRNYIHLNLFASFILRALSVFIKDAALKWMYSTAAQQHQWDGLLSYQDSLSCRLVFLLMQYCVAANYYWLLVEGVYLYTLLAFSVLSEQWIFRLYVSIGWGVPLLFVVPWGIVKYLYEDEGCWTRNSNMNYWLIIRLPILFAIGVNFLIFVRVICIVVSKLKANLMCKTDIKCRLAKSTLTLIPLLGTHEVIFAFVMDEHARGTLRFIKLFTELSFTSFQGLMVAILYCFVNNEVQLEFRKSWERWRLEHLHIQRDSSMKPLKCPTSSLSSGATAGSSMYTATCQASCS

The first assay has as its target T1, human GLP-1 receptor (Homo sapiens, UniProt P43220).
T1 construct: HA (N); expressed in transfected cells
In words: GLP-1 receptor-mediated agonist activity: cAMP level in hGLP-1R/HEK293 cell line (HTRF). In kind it is cell-based. To be noted: cAMP levels in hGLP-1R/HEK293 cell line; Table 1; read-out: determined EC50. (cAMP levels reflect the balance of adenylyl cyclase and phosphodiesterase activity.)
Procedure: The hGLP-1R/HEK293 cells were digested, centrifuged and resuspended in culture medium (DMEM+0.2% BSA, m/v), and the cell density was adjusted to 2×10^5 cells/mL. IBMX (3-isobutyl-1-methylxanthine, final concentration of 0.5 mM) was added to the cell suspension and added to a 384-well plate at 5 µL (1×10^3 cells)/well. The compound was dissolved in DMSO to prepare a stock solution with a concentration of 10 mM. The experiment started with a concentration of 100 µM which was diluted 10 times in a series of 7 dilution points, with the 8th point being DMSO. 2 µL of the test compound of different concentrations was added to 98 µL of culture medium, shaken and mixed, 5 µL was taken and added to a 384-well plate (final concentration of the test compound was 0-100 nM, final concentration of DMSO was 1%, v/v), which was then incubated in the incubator (37°C, 5% CO2) in the dark for 30 min, then 10 µL of cAMP detection reagent (LANCE Ultra cAMP Detecion Kit, PerkinElmer, #TRF0264) was added, mixed well, and reacted at room temperature in the dark for 1 h. After the reaction was completed, the HTRF signal was read using the Envision 2104 multi-function microplate reader. All samples were tested in triplicate wells, and the ratio of the acceptor-donor excitation signal in each single well was calculated using the formula Ratio = Signal 665nM/Signal 620nM. The HTRF signal ratio and the corresponding compound concentration were analyzed and processed using GraphPad Prism 8 software, and the EC50 value of the compound was obtained by fitting the S-type dose-response curve and calculating.
For the compound `[2H]C([2H])([2H])Oc1cc(C(=O)O)cc2c1nc(CN1CCN(c3cccc4c3OC(C)(c3ccc(Cl)cc3F)O4)C=N1)n2C[C@@H]1CCO1` (stereo partly drawn) [Compound 71, 2-((4-(2-(4-chloro-2-fluorophenyl)-2-methylbenzo[d][1,3]dioxol-4-yl)-5,6-dihydro-1,2,4-triazin-1(4H)-yl)methyl)-4-(methoxy-d3)-1-(((S)-oxetan-2-yl)methyl)-1H-benzo[d]imidazole-6-carboxylic acid], the half-maximal effective concentration (EC50) (in general, the midpoint of the concentration-response curve) is 0.0175 nM.

Consider `COc1cc(C(=O)O)cc2c1nc(CN1CCC(c3cccc(OCc4ccc(C#N)cc4F)n3)CC1)n2C[C@@H]1CCO1` [Compound 1, (S)-2-((4-(6-((4-cyano-2-fluorobenzyl)oxy)pyridin-2-yl)piperidin-1-yl)methyl)-4-methoxy-1-(oxetan-2-ylmethyl)-1H-benzo[d]imidazole-6-carboxylic acid], for which the concentration for a half-maximal effect (EC50) stood at 0.0048 nM.

For `[2H]C([2H])([2H])C([2H])([2H])Oc1cc(C(=O)O)cc2c1nc(CN1CCN(c3cccc4c3O[C@](C)(c3ccc(Cl)cc3F)O4)C=N1)n2C[C@@H]1CCO1` [Compound 76-2, 2-((4-((R)-2-(4-chloro-2-fluorophenyl)-2-methylbenzo[d][1,3]dioxol-4-yl)-5,6-dihydro-1,2,4-triazin-1(4H)-yl)methyl)-4-(ethoxy-d5)-1-(((S)-oxetan-2-yl)methyl)-1H-benzo[d]imidazole-6-carboxylic acid], the EC50 is 0.604 nM.

Regarding `COc1cc(C(=O)O)cc2c1nc(CN1CCC(c3cccc4c3OC(C)(c3ccc(Cl)cn3)O4)CC1)n2C[C@@H]1CCO1` (stereo partly drawn) [Compound 38, 2-((4-(2-(5-chloropyridin-2-yl)-2-methylbenzo[d][1,3]dioxol-4-yl)piperidin-1-yl)methyl)-4-methoxy-1-(((S)-oxetan-2-yl)methyl)-1H-benzo[d]imidazole-6-carboxylic acid], the EC50 was found to be 0.0229 nM.

As for `CCOc1cc(C(=O)O)cc2c1nc(CN1CCN(c3cccc4c3OC(C)(c3cc(F)c(Cl)cc3F)O4)C=N1)n2C[C@@H]1CCO1` (stereo partly drawn) [Compound 79, 2-((4-(2-(4-chloro-2,5-difluorophenyl)-2-methylbenzo[d][1,3]dioxol-4-yl)-5,6-dihydro-1,2,4-triazin-1(4H)-yl)methyl)-4-ethoxy-1-(((S)-oxetan-2-yl)methyl)-1H-benzo[d]imidazole-6-carboxylic acid], the concentration for a half-maximal effect (EC50) was 0.0442 nM.

Take `CCOc1cc(C(=O)O)cc2c1nc(CN1CCC(c3cccnc3OCc3ccc(C#N)cc3F)CC1)n2C[C@@H]1CCO1` [Compound 33, (S)-2-((4-(2-((4-cyano-2-fluorobenzyl)oxy)pyridin-3-yl)piperidin-1-yl)methyl)-4-ethoxy-1-(oxetan-2-ylmethyl)-1H-benzo[d]imidazole-6-carboxylic acid]: the EC50 amounted to 0.0467 nM.

For `CCOc1cc(C(=O)O)cc2c1nc(CN1CCN(c3cccc4c3OC(C)(c3ccc(F)cc3F)O4)C=N1)n2C[C@@H]1CCO1` (stereo partly drawn) [Compound 86, 2-((4-(2-(2,4-difluorophenyl)-2-methylbenzo[d][1,3]dioxol-4-yl)-5,6-dihydro-1,2,4-triazin-1(4H)-yl)methyl)-4-ethoxy-1-(((S)-oxetan-2-yl)methyl)-1H-benzo[d]imidazole-6-carboxylic acid], the EC50 is 0.0289 nM.

Turning to `CCOc1cc(C(=O)O)cc2c1nc(CN1CCN(c3cccc(OCc4ccc(C(F)(F)F)cc4F)n3)C=N1)n2C[C@@H]1CCO1` [Compound 24, (S)-4-ethoxy-2-((4-(6-((2-fluoro-4-(trifluoromethyl)benzyl)oxy)pyridin-2-yl)-5,6-dihydro-1,2,4-triazin-1(4H)-yl)methyl)-1-(oxetan-2-ylmethyl)-1H-benzo[d]imidazole-6-carboxylic acid], the 50% effective concentration (EC50) was found to be 0.0053 nM.

Regarding `CCCOc1cc(C(=O)O)cc2c1nc(CN1CCN(c3cccc(OCc4ccc(C#N)cc4F)n3)C=N1)n2C[C@@H]1CCO1` [Compound 10, (S)-2-((4-(6-((4-cyano-2-fluorobenzyl)oxy)pyridin-2-yl)-5,6-dihydro-1,2,4-triazin-1(4H)-yl)methyl)-1-(oxetan-2-ylmethyl)-4-propoxy-1H-benzo[d]imidazole-6-carboxylic acid], the EC50 was found to be 0.0049 nM.

As to `COc1cc(C#N)ccc1COc1ncccc1C1CCN(Cc2nc3c(OC)cc(C(=O)O)cc3n2C[C@@H]2CCO2)CC1` [Compound 34, (S)-2-((4-(2-((4-cyano-2-methoxybenzyl)oxy)pyridin-3-yl)piperidin-1-yl)methyl)-4-methoxy-1-(oxetan-2-ylmethyl)-1H-benzo[d]imidazole-6-carboxylic acid], the EC50 turned out to be 0.0033 nM.

On to `COc1cc(C(=O)O)cc2c1nc(CN1CCC(c3cccc(OCc4ccc(Cl)c5c4OCC5)n3)CC1)n2C[C@@H]1CCO1` [Compound 16, (S)-2-((4-(6-((4-chloro-2,3-dihydrobenzofuran-7-yl)methoxy)pyridin-2-yl)piperidin-1-yl)methyl)-4-methoxy-1-(oxetan-2-ylmethyl)-1H-benzo[d]imidazole-6-carboxylic acid], for which the EC50 is 0.0033 nM.

As for `COc1cc(C#N)ccc1COc1cccc(C2CCN(Cc3nc4c(OC)cc(C(=O)O)cc4n3C[C@@H]3CCO3)CC2)c1` [Compound 42, (S)-2-((4-(3-((4-cyano-2-methoxybenzyl)oxy)phenyl)piperidin-1-yl)methyl)-4-methoxy-1-(oxetan-2-ylmethyl)-1H-benzo[d]imidazole-6-carboxylic acid], the 50% effective concentration (EC50) was determined as 0.0298 nM.

Take `[2H]C([2H])([2H])Oc1cc(C(=O)O)cc2c1nc(CN1CCN(c3cccc4c3OC(C)(c3ccc(Cl)cc3OC)O4)C=N1)n2C[C@@H]1CCO1` (stereo partly drawn) [Compound 84, 2-((4-(2-(4-chloro-2-methoxyphenyl)-2-methylbenzo[d][1,3]dioxol-4-yl)-5,6-dihydro-1,2,4-triazin-1(4H)-yl)methyl)-4-(methoxy-d3)-1-(((S)-oxetan-2-yl)methyl)-1H-benzo[d]imidazole-6-carboxylic acid]: the EC50 stood at 0.0098 nM.

`COc1cc(C(=O)O)cc2c1nc(CN1CCN(c3cccc(OCc4ccc(C(F)(F)F)cc4F)n3)C=N1)n2C[C@@H]1CCO1` [Compound 22, (S)-2-((4-(6-((2-fluoro-4-(trifluoromethyl)benzyl)oxy)pyridin-2-yl)-5,6-dihydro-1,2,4-triazin-1(4H)-yl)methyl)-4-methoxy-1-(oxetan-2-ylmethyl)-1H-benzo[d]imidazole-6-carboxylic acid]: the EC50 was found to be 0.0085 nM.

Regarding `COc1cc(C(=O)O)cc2c1nc(CN1CCC(c3cccc4c3OC(C)(c3ccc(C(F)(F)F)cn3)O4)CC1)n2C[C@@H]1CCO1` (stereo partly drawn) [Compound 55, 4-methoxy-2-((4-(2-methyl-2-(5-(trifluoromethyl)pyridin-2-yl)benzo[d][1,3]dioxol-4-yl)piperidin-1-yl)methyl)-1-(((S)-oxetan-2-yl)methyl)-1H-benzo[d]imidazole-6-carboxylic acid], the EC50 was determined as 0.0252 nM.

As for `CCOc1cc(C(=O)O)cc2c1nc(CN1CCC(c3cccc4c3OC(C)(c3ccc(C(F)(F)F)cc3OC)O4)CC1)n2C[C@@H]1CCO1` (stereo partly drawn) [Compound 60], the half-maximal effective concentration (EC50) worked out at 0.0026 nM.

For `[2H]C([2H])([2H])Oc1cc(C(=O)O)cc2c1nc(CN1CCC(c3cccc4c3OC(C)(c3ccc(Cl)cc3F)O4)CC1)n2C[C@@H]1CCO1` (stereo partly drawn) [Compound 74, 2-((4-(2-(4-chloro-2-fluorophenyl)-2-methylbenzo[d][1,3]dioxol-4-yl)piperidin-1-yl)methyl)-4-(methoxy-d3)-1-(((S)-oxetan-2-yl)methyl)-1H-benzo[d]imidazole-6-carboxylic acid], the concentration for a half-maximal effect (EC50) is 0.0065 nM.

Take `COc1cc(C(=O)O)cc2c1nc(CN1CCC(c3cccc(OCc4ccc(C#N)c5c4OCC5)c3)CC1)n2C[C@@H]1CCO1` [Compound 43, (S)-2-((4-(3-((4-cyano-2,3-dihydrobenzofuran-7-yl)methoxy)phenyl)piperidin-1-yl)methyl)-4-methoxy-1-(oxetan-2-ylmethyl)-1H-benzo[d]imidazole-6-carboxylic acid]: the 50% effective concentration (EC50) came to 0.0342 nM.

For the compound `[2H]C([2H])([2H])C([2H])([2H])Oc1cc(C(=O)O)cc2c1nc(CN1CCN(c3cccc4c3OC(C)(c3cc(F)c(Cl)cc3F)O4)C=N1)n2C[C@@H]1CCO1` (stereo partly drawn) [Compound 80, 2-((4-(2-(4-chloro-2,5-difluorophenyl)-2-methylbenzo[d][1,3]dioxol-4-yl)-5,6-dihydro-1,2,4-triazin-1(4H)-yl)methyl)-4-(ethoxy-d5)-1-(((S)-oxetan-2-yl)methyl)-1H-benzo[d]imidazole-6-carboxylic acid], the EC50 came to 0.0438 nM.

For the compound `CCOc1cc(C(=O)O)cc2c1nc(CN1CCC(c3cccc(OCc4ccc(C(F)(F)F)cc4OC)n3)CC1)n2C[C@@H]1CCO1` [Compound 52, (S)-4-ethoxy-2-((4-(6-((2-methoxy-4-(trifluoromethyl)benzyl)oxy)pyridin-2-yl)piperidin-1-yl)methyl)-1-(oxetan-2-ylmethyl)-1H-benzo[d]imidazole-6-carboxylic acid], the EC50 is 0.0012 nM.

For the compound `COc1cc(C(F)(F)F)ccc1C1(C)Oc2cccc(N3C=NN(Cc4nc5c(OC)cc(C(=O)O)cc5n4C[C@@H]4CCO4)CC3)c2O1` (stereo partly drawn) [Compound 88, 4-methoxy-2-((4-(2-(2-methoxy-4-(trifluoromethyl)phenyl)-2-methylbenzo[d][1,3]dioxol-4-yl)-5,6-dihydro-1,2,4-triazin-1(4H)-yl)methyl)-1-(((S)-oxetan-2-yl)methyl)-1H-benzo[d]imidazole-6-carboxylic acid], the EC50 turned out to be 0.0087 nM.

As for `COc1cc(C(=O)O)cc2c1nc(CN1CCC(c3ccccc3OCc3ccc(Cl)c4c3OCC4)CC1)n2C[C@@H]1CCO1` [Compound 45, (S)-2-((4-(2-((4-chloro-2,3-dihydrobenzofuran-7-yl)methoxy)phenyl)piperidin-1-yl)methyl)-4-methoxy-1-(oxetan-2-ylmethyl)-1H-benzo[d]imidazole-6-carboxylic acid], the EC50 was determined as 0.0509 nM.

Staying with this assay, now noted: cAMP levels of the hGLP-1R/HEK293 cell line; Table 2, comparison with reference compounds; read-out: EC50.
`CC1(c2ccc(Cl)cn2)Oc2cccc(N3C=NN(Cc4nc5ccc(C(=O)O)cc5n4C[C@@H]4CCO4)CC3)c2O1` (stereo partly drawn) [CN2022114139828 , Compound 36, reference compound]: the half-maximal effective concentration (EC50) is 0.336 nM.

On to `N#Cc1ccc(COc2cccc(C3CCN(Cc4nc5ccc(C(=O)O)cc5n4C[C@@H]4CCO4)CC3)n2)c2occc12` [CN113480534 , Compound 3, reference compound], for which the EC50 worked out at 0.0127 nM.
